# In US20070066682A1, “Arylalkylamine vanadium (V) salts for the treatment and/or prevention of Diabetes mellitus” (priority 2005, published 2007):
# Biological target: T1, mouse SSAO (Mus musculus, UniProt O70423)
# T1 sequence (O70423 1-765): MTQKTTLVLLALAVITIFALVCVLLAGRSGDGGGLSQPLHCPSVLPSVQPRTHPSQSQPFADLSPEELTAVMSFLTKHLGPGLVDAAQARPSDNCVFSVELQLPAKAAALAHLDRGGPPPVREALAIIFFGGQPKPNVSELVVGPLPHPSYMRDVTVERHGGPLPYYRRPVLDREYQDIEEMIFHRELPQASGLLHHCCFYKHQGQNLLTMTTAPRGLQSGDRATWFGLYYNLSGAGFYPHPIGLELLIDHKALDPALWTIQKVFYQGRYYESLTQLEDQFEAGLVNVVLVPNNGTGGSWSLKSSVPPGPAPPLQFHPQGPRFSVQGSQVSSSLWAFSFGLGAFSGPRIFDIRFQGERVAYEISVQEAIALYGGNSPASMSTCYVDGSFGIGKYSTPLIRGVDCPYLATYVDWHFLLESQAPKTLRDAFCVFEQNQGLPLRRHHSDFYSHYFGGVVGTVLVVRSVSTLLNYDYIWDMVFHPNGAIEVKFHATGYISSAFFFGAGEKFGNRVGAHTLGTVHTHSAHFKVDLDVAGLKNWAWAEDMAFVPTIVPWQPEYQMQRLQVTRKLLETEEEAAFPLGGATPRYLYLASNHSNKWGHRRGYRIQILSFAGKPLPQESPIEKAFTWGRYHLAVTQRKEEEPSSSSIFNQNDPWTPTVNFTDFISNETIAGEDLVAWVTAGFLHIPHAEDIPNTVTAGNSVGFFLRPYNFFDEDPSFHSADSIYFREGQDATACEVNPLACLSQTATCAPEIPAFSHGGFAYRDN
# Experiment: SSAO activity, hydrogen peroxide production relative to benzylamine (mouse)
# Format: biochemical
# Details: compound at 100 μM
# Protocol: (§1) The continuous spectrophotometric detection of SSAO-dependent H2O2 production based on a peroxidase-coupled reaction was performed as previously described by Abella et al. (2004, Diabetologia 47: 429-438) and following the procedure described by Holt et al., (1997, Anal. Biochem. 244: 384-392).
# (§2) Compounds listed in Table 1 were prepared according to the methods described above, purity was determined by HPLC at 220 nm, molecular weight calculated by mass spectrometer. Human and mouse SSAO activity was determined by detecting the production of hydrogene peroxide in the presence of the different compounds present at 1 mM for human and 100 μM for mice activity measurements. Compounds in Table 2″ were similarly assayed. Values are means of percentages relative to benzylamine-related hydrogen production. Kinetic Parameters for select compounds are set forth in Table 3 (Mouse SSAO) and Table 4 (Human SSAO).
row,SMILES,SSAO activity (% relative to benzylamine) Mouse [%]
1,"COc1ccc(CCN)cc1OC [Entry 48, 2-(3,4-dimethoxyphenyl)ethanamine]",3.80
2,"NCc1ccc(OCc2ccccc2)cc1 [Entry 20, (4-(benzyloxy)phenyl)methanamine]",0.0
3,"NCCc1ccc(O)c(O)c1 [Entry 47, 4-(2-aminoethyl)benzene-1,2-diol]",0.00
4,"COc1cc(F)cc(CN)c1 [Entry 17, (3-fluoro-5-methoxyphenyl)methanamine]",4.86
5,"CC(N)c1cccc2ccccc12 (stereo not shown) [Entry 30, 1-(naphthalen-1-yl)ethanamine]",0.00
6,"COc1cc(CN)cc(OC)c1 [Entry 24, (3,5-dimethoxyphenyl)methanamine]",0.75
7,"NCc1ccccc1F [Entry 23, (2-fluorophenyl)methanamine]",44.0
8,"CCCCc1ccc(CN)cc1 [Entry 11, (4-butylphenyl)methanamine]",27.00
9,"NCc1cccc2c1OCCO2 [Entry 21, (2,3-dihydrobenzo-[b][1,4]dioxin-5-yl)methanamine]",12.36
10,"NCc1ccc(F)cc1 [Entry 3, (4-fluorophenyl)methanamine]",77.20
11,"NCc1ccc(CN)cc1 [Entry 25, 1,4-phenylene dimethanamine]",0.00
12,"COc1ccc(CN)c2ccccc12 [Entry 28, (4-methoxynaphthalen-1-yl)methanamine]",0.00
13,"NCc1ccc(OC(F)(F)F)cc1 [Entry 9, (4-(trifluoromethoxy)phenyl)methanamine]",66.20
14,"Cc1ccc(CN)cc1F [Entry 16, (3-fluoro-4-methylphenyl)methanamine]",33.49
15,"NCc1c(O)ccc2ccccc12 [Entry 29, 1-(aminomethyl)naphthalen-2-ol]",0.00
16,CCc1ccc(CN)cc1 [Entry 5],17.30
17,"NCCCCc1ccccc1 [Entry 44, 4-phenylbutan-1-amine]",61.18
18,"NCCCc1ccccc1 [Entry 42, 3-phenylpropan-1-amine]",44.80

row,SMILES,SSAO activity (% relative to benzylamine) Mouse [%]
1,"Cc1ccc(CN)cc1 [Entry 4, p-tolylmethanamine]",0.00
2,"COc1cccc2[nH]cc(CN)c12 [Entry 45, (4-methoxy-1H-indol-3-yl)methanamine]",5.54
3,"COc1ccc(CN)c(OC)c1 [Entry 10, (2,4-dimethoxyphenyl)methanamine]",0.00
4,"NCc1cccc([N+](=O)[O-])c1O [Entry 14, 2-(aminomethyl)-6-nitrophenol]",5.47
5,"NCc1ccccc1 [Entry 1, Benzylamine, reference compound]",100
6,"NCc1ccc(C(F)(F)F)cc1 [Entry 8, (4-(trifluoromethyl)phenyl)methanamine]",83.00
7,"NCCc1ccc(F)cc1 [Entry 46, 2-(4-fluorophenyl)ethanamine]",59.80
8,"NCc1ccc(-c2ccccc2)cc1 [Entry 15, biphenyl-4-yl-methanamine]",3.77
9,"NCCc1ccccc1 [Entry 41, 2-phenylethanamine]",6.80
10,"NCCOc1ccccc1 [Entry 43, 2-phenoxyethanamine]",14.60
11,"COc1ccc(CN)cc1 [Entry 22, (4-methoxyphenyl)methanamine]",4.56
12,"COc1cccc(O)c1CN [Entry 19, 2-(aminomethyl)-3-methoxyphenol]",0.00
13,"NCc1ccc(C(=O)O)cc1 [Entry 27, 4-(aminomethyl)benzoic acid]",4.06
14,"NCc1ccc(O)c(Br)c1 [Entry 13, 4-(aminomethyl)-2-bromophenol]",0.00
15,"CC(C)c1ccc(CN)cc1 [Entry 7, (4-isopropylphenyl)methanamine]",0.00
16,"NCc1cccc(CN)c1 [Entry 26, 1,3-phenylene dimethanamine]",0.00
17,"CC(C)(C)c1ccc(CN)cc1 [Entry 6, (4-tert-butylphenyl)methanamine]",1.00

# Biological target: T2, Human SSAO (Homo sapiens, UniProt Q16853)
# T2 sequence (Q16853 1-763): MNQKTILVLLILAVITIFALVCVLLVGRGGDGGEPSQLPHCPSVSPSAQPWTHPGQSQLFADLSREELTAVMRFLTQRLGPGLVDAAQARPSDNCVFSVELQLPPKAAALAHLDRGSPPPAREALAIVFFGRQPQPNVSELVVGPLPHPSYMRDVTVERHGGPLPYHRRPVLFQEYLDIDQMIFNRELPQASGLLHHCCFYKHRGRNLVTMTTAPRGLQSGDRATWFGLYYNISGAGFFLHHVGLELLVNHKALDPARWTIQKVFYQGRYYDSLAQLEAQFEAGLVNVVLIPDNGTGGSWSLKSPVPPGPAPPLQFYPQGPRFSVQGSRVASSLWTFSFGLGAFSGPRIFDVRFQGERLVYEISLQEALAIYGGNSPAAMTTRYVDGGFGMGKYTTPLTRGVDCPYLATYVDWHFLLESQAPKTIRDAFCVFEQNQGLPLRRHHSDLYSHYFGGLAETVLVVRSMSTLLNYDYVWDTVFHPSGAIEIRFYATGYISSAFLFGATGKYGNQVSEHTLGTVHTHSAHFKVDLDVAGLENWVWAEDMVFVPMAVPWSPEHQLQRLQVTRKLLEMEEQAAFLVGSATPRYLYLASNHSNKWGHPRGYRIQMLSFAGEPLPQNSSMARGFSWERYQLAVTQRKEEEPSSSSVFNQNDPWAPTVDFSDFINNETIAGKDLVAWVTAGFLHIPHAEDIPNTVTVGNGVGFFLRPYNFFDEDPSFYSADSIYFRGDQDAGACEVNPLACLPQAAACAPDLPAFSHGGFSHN
# Experiment: SSAO activity, hydrogen peroxide production relative to benzylamine (human)
# Format: biochemical
# Details: compound at 1 mM
# Protocol: as §1, §2
row,SMILES,SSAO activity (% relative to benzylamine) Human [%]
1,"COc1ccc(CCN)cc1OC [Entry 48, 2-(3,4-dimethoxyphenyl)ethanamine]",0.00
2,"NCc1ccc(OCc2ccccc2)cc1 [Entry 20, (4-(benzyloxy)phenyl)methanamine]",0.0
3,"NCCc1ccc(O)c(O)c1 [Entry 47, 4-(2-aminoethyl)benzene-1,2-diol]",0.00
4,"COc1cc(F)cc(CN)c1 [Entry 17, (3-fluoro-5-methoxyphenyl)methanamine]",2.53
5,"CC(N)c1cccc2ccccc12 (stereo not shown) [Entry 30, 1-(naphthalen-1-yl)ethanamine]",11.00
6,"COc1cc(CN)cc(OC)c1 [Entry 24, (3,5-dimethoxyphenyl)methanamine]",0.00
7,"NCc1ccccc1F [Entry 23, (2-fluorophenyl)methanamine]",1.3
8,"CCCCc1ccc(CN)cc1 [Entry 11, (4-butylphenyl)methanamine]",0.00
9,"NCc1cccc2c1OCCO2 [Entry 21, (2,3-dihydrobenzo-[b][1,4]dioxin-5-yl)methanamine]",0.00
10,"NCc1ccc(F)cc1 [Entry 3, (4-fluorophenyl)methanamine]",31.70
11,"NCc1ccc(CN)cc1 [Entry 25, 1,4-phenylene dimethanamine]",0.00
12,"COc1ccc(CN)c2ccccc12 [Entry 28, (4-methoxynaphthalen-1-yl)methanamine]",0.70
13,"NCc1ccc(OC(F)(F)F)cc1 [Entry 9, (4-(trifluoromethoxy)phenyl)methanamine]",0.00
14,"Cc1ccc(CN)cc1F [Entry 16, (3-fluoro-4-methylphenyl)methanamine]",7.07
15,"NCc1c(O)ccc2ccccc12 [Entry 29, 1-(aminomethyl)naphthalen-2-ol]",0.00
16,CCc1ccc(CN)cc1 [Entry 5],0.00
17,"NCCCCc1ccccc1 [Entry 44, 4-phenylbutan-1-amine]",147.63
18,"NCCCc1ccccc1 [Entry 42, 3-phenylpropan-1-amine]",60.30

row,SMILES,SSAO activity (% relative to benzylamine) Human [%]
1,"Cc1ccc(CN)cc1 [Entry 4, p-tolylmethanamine]",0.00
2,"COc1cccc2[nH]cc(CN)c12 [Entry 45, (4-methoxy-1H-indol-3-yl)methanamine]",0.00
3,"COc1ccc(CN)c(OC)c1 [Entry 10, (2,4-dimethoxyphenyl)methanamine]",0.00
4,"NCc1cccc([N+](=O)[O-])c1O [Entry 14, 2-(aminomethyl)-6-nitrophenol]",0.11
5,"NCc1ccccc1 [Entry 1, Benzylamine, reference compound]",100
6,"NCc1ccc(C(F)(F)F)cc1 [Entry 8, (4-(trifluoromethyl)phenyl)methanamine]",0.50
7,"NCCc1ccc(F)cc1 [Entry 46, 2-(4-fluorophenyl)ethanamine]",16.30
8,"NCc1ccc(-c2ccccc2)cc1 [Entry 15, biphenyl-4-yl-methanamine]",0.00
9,"NCCc1ccccc1 [Entry 41, 2-phenylethanamine]",8.20
10,"NCCOc1ccccc1 [Entry 43, 2-phenoxyethanamine]",17.93
11,"COc1ccc(CN)cc1 [Entry 22, (4-methoxyphenyl)methanamine]",0.00
12,"COc1cccc(O)c1CN [Entry 19, 2-(aminomethyl)-3-methoxyphenol]",0.00
13,"NCc1ccc(C(=O)O)cc1 [Entry 27, 4-(aminomethyl)benzoic acid]",0.00
14,"NCc1ccc(O)c(Br)c1 [Entry 13, 4-(aminomethyl)-2-bromophenol]",0.00
15,"CC(C)c1ccc(CN)cc1 [Entry 7, (4-isopropylphenyl)methanamine]",0.00
16,"NCc1cccc(CN)c1 [Entry 26, 1,3-phenylene dimethanamine]",0.00
17,"CC(C)(C)c1ccc(CN)cc1 [Entry 6, (4-tert-butylphenyl)methanamine]",0.00
